Results as given in publication PMC8429736, “Pharmacological characterization of mutant huntingtin aggregate-directed PET imaging tracer candidates” (Scientific Reports, 2021).

Key:
[1] = biological target: beta amyloid/tau aggregates in post-mortem AD patient brain homogenates; assay: ADbh RBA saturation (direct) binding; set-up: species or system human; conditions: 100 µg homogenate per well
Experimental: (§1) For RBA in vitro binding assays, brain tissue was sliced (50 µm), weighed and homogenized in PBS (Gibco, 14190-94), 0.1% BSA with a glass pestle (10 strokes) at a concentration of 12–15 mg wet tissue per mL buffer. The crude homogenate concentration was then adjusted to 10 mg/mL (wet tissue) and stored as single-use aliquots at -80 °C.
(§2) RBA experiments using Alzheimer’s disease brain homogenates (ADbh RBA) followed the same assay principle as the RBA with recombinant HTT protein, using 0.68 mg/mL homogenate (100 µg per well with 150 µL assay volume) in assay buffer PBS, 0.01% Pluronic F127 (Sigma. P2443) and 1% DMSO after compound addition. Competition experiments were conducted with 0.5 nM radioligand 4 and 50 µg homogenate per well. Incubation at room temperature was conducted for 20 min after compound addition and for 5 h after radioligand addition. For the competition format, raw cpm were normalized towards assay controls as before, to obtain inhibition between 0 and 100%. For saturation binding, raw cpm were converted into nM as before, using a calibration line of total added radioligand, and normalized to mg of added homogenate to finally obtain pmol/mg.

Q46 aggregates = assay: RBA competition binding against tritiated 3, Q46 aggregates; conditions: 0.3 nM tritiated 3 as radioligand; 1 µM aggregates; mean ± SD
Experimental: (§3) For the competition assay format, Q46 or Exon1-Q46 aggregates at 1 µM (sample volume 150 µL) were pre-incubated in a 96-well round bottom plate (Corning, #3365) for 20 min with test compounds at room temperature (assay buffer 50 mM Tris–HCl pH 8.0, 150 mM NaCl). […] Radioligand 3 at 0.3 nM was added and incubated for 1 h at 37 °C.
(§4) Samples were then transferred onto a 96-well GF/B filter plate (Perkin Elmer, #6005177) using a Filtermate Harvester, aspirated by vacuum and wells washed twice with 200 µL PBS. After drying the filter plates for 1 h at 55 °C the back of the plate was sealed with aluminum cover and 30 µL of scintillation fluid (Perkin Elmer, #6013641) per well was added. The tops of the plates were sealed, and the plates were incubated for 15 min in the dark and counted in a TopCount or MicroBeta2 reader (both Perkin Elmer).
(§5) Raw sample data collected as counts per minute (cpm) were normalized towards assay controls: 0% inhibition = radioligand + protein + vehicle, 100% inhibition = radioligand + protein + 1 µM unlabeled ligand. A 4-parameter […] fit was applied to generate IC50 values.

Exon1-Q46 aggregates = biological target: T1, Exon1-Q46 aggregates (Homo sapiens, UniProt P42858, INS38QQQQQQQQQQQQQQQQQQQQQQQQQ); assay: RBA competition binding against tritiated 3, Exon1-Q46 aggregates; conditions: 0.3 nM tritiated 3 as radioligand; 1 µM aggregates; mean ± SD; read-out: IC50 Exon1-Q46
T1 construct: MBP-HTT(1-89)Q46-His(6x); MBP (N, cleaved yes); made in house; host or cells: E. coli BL21 (DE3)
Experimental: as §3, §4, §5

[2] = test system: beta amyloid/tau aggregates in post-mortem AD patient brain homogenates; assay: ADbh RBA competition format; assay type: binding, human; conditions: for displacement of bound 5: radioligand 5
Experimental: as §1
as §2, with “Competition experiments were conducted with 0.5 nM radioligand 4 and 50 µg homogenate per well.” left out

[3] = biological target: phospho-Tau tangles (AT8 antibody) (Homo sapiens, UniProt P10636); assay: HR ARG co-registration with AT8 antibody, human AD brain sections; assay type: binding; conditions: 10 nM CHDI-180, 10 nM CHDI-626, 0.1 nM PiB, 1 nM T808
[4] = biological target: beta amyloid plaques (6E10 antibody) (Homo sapiens, UniProt P05067); assay: HR ARG co-registration with 6E10 antibody, human AD brain sections; assay type: binding; conditions: 10 nM CHDI-180, 10 nM CHDI-626, 0.1 nM PiB, 1 nM T808
Chain of beta amyloid plaques (6E10 antibody) (P05067 672-713 limits assumed): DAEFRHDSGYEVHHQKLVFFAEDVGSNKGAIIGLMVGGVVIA

T1 sequence (P42858 with tags, fused parts or gaps with the stated changes): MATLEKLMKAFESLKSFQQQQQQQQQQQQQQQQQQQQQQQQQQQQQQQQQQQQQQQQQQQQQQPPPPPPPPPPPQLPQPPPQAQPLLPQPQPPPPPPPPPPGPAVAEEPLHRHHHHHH
Chain of phospho-Tau tangles (AT8 antibody) (P10636 623-695 limits assumed): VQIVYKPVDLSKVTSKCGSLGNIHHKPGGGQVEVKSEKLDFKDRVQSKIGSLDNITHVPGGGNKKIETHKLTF

Kd [1]	IC50 (Q46 aggregates)	IC50 (Exon1-Q46 aggregates)	displacement of bound 5 [2]	co-registration with AT8-positive phospho-Tau immunoreactivity [3]	co-registration with 6E10-positive beta amyloid plaques [4]	Bmax, AD brain homogenate [1]	displacement of 4 at 0.1 µM ([2]; radioligand 4, compound 0.1 µM)	SMILES	heterologous competition with radioligand 4 ([2]; radioligand 4)
3.4 nM	> 333 nM	72.5 ± 0.4 nM	–	–	–	–	–	CNc1ccc(-c2nc3ccc(O)cc3s2)cc1 [PiB]	–
–	–	–	complete displacement	–	–	–	–	CNc1ccc(-c2nc3ccc(O)cc3s2)cc1F [Flutemetamol]	complete displacement
–	> 333 nM	> 333 nM	~ 50%	co-registered with AT8	not with 6E10 antibody	–	–	FCCC1CCN(c2ccn3c(n2)nc2ccccc23)CC1 [Compound T808]	could not compete
–	–	–	complete displacement	not with AT8 immunoreactivity	–	10.5 pmol/mg	fully displace	[11CH3]Nc1ccc(-c2nc3ccc(O)cc3s2)cc1 [PiB]	complete displacement
